Measured values published in the supplement of paper PMC10307832.

Columns and labels:
Experiment in all cases: relative viability (nuclei count vs DMSO), 5 days (fraction); higher = more cells survive
VX-11e + Vorinostat = compound: CC1=CN=C(N=C1C2=CNC(=C2)C(=O)N[C@H](CO)C3=CC(=CC=C3)Cl)NC4=C(C=C(C=C4)F)Cl [VX-11e] + O=C(CCCCCCC(=O)Nc1ccccc1)NO [Vorinostat] (partner 1 µM)
Method in brief: (§1)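 Relative viability is defined as nuclei in treated wells over nuclei in vehicle wells. Duplicate plates were run and medians reported. Lung cancer cell lines in 1536-well plates were dosed by pin tool one day after seeding, with one drug or with a fixed anchor-drug dose plus five library-drug doses (not always all listed) in √10 steps, and nuclei were counted after 5 days.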

VX-11e + Pemetrexed = compound: CC1=CN=C(N=C1C2=CNC(=C2)C(=O)N[C@H](CO)C3=CC(=CC=C3)Cl)NC4=C(C=C(C=C4)F)Cl [VX-11e] + Nc1nc2[nH]cc(CCc3ccc(C(=O)N[C@@H](CCC(=O)O)C(=O)O)cc3)c2c(=O)[nH]1 [Pemetrexed] (partner 0.2 µM)
Method in brief: as §1

VX-11e + Dasatinib = compound: CC1=CN=C(N=C1C2=CNC(=C2)C(=O)N[C@H](CO)C3=CC(=CC=C3)Cl)NC4=C(C=C(C=C4)F)Cl [VX-11e] + Cc1nc(Nc2ncc(C(=O)Nc3c(C)cccc3Cl)s2)cc(N2CCN(CCO)CC2)n1 [Dasatinib] (partner 0.075 µM)
Method in brief: as §1

VX-11e + Palbociclib = compound: CC1=CN=C(N=C1C2=CNC(=C2)C(=O)N[C@H](CO)C3=CC(=CC=C3)Cl)NC4=C(C=C(C=C4)F)Cl [VX-11e] + CC(=O)c1c(C)c2cnc(Nc3ccc(N4CCNCC4)cn3)nc2n(C2CCCC2)c1=O [Palbociclib] (partner 0.5 µM)
Method in brief: as §1

Row | Cell Line | relative viability (VX-11e + Vorinostat; first compound 0.04 µM) | relative viability (VX-11e + Vorinostat; first compound 0.1265 µM) | relative viability (VX-11e + Vorinostat; first compound 0.4 µM) | relative viability (VX-11e + Vorinostat; first compound 1.265 µM) | relative viability (VX-11e + Vorinostat; first compound 4 µM) | relative viability (VX-11e + Pemetrexed; first compound 0.04 µM) | relative viability (VX-11e + Pemetrexed; first compound 0.1265 µM) | relative viability (VX-11e + Pemetrexed; first compound 0.4 µM) | relative viability (VX-11e + Pemetrexed; first compound 1.265 µM) | relative viability (VX-11e + Pemetrexed; first compound 4 µM) | relative viability (VX-11e + Dasatinib; first compound 0.04 µM) | relative viability (VX-11e + Dasatinib; first compound 0.1265 µM) | relative viability (VX-11e + Dasatinib; first compound 0.4 µM) | relative viability (VX-11e + Dasatinib; first compound 1.265 µM) | relative viability (VX-11e + Dasatinib; first compound 4 µM) | relative viability (VX-11e + Palbociclib; first compound 0.04 µM) | relative viability (VX-11e + Palbociclib; first compound 0.1265 µM) | relative viability (VX-11e + Palbociclib; first compound 0.4 µM) | relative viability (VX-11e + Palbociclib; first compound 1.265 µM) | relative viability (VX-11e + Palbociclib; first compound 4 µM)
1 | NCI-H460 | 0.855 | 0.693 | 0.692 | 0.522 | 0.0489 | 0.0706 | 0.0577 | 0.0649 | 0.0564 | 0.0528 | 0.476 | 0.515 | 0.23 | 0.266 | 0.0901 | 0.198 | 0.195 | 0.146 | 0.0404 | 0.0179
2 | NCI-H520 | 0.646 | 0.875 | 0.682 | 0.698 | 0.518 | 0.752 | 0.738 | 0.716 | 0.65 | 0.478 | 0.175 | 0.188 | 0.199 | 0.338 | 0.293 | 0.202 | 0.254 | 0.232 | 0.244 | 0.292
3 | NCI-H522 | 0.994 | 0.939 | 0.736 | 0.713 | 0.751 | 0.861 | 0.936 | 0.962 | 0.76 | 0.59 | 0.647 | 0.849 | 0.719 | 0.72 | 0.605 | 0.782 | 0.924 | 0.861 | 0.717 | 0.733
4 | NCI-H647 | 0.501 | 0.655 | 0.637 | 0.496 | 0.339 | 0.187 | 0.198 | 0.177 | 0.137 | 0.123 | 0.23 | 0.215 | 0.0848 | 0.123 | 0.0992 | 0.37 | 0.346 | 0.372 | 0.256 | 0.217
5 | NCI-H650 | 0.33 | 0.435 | 0.63 | 0.608 | 0.533 | 0.997 | 0.903 | 0.984 | 1.05 | 1.11 | 0.418 | 0.467 | 0.425 | 0.414 | 0.398 | 0.358 | 0.487 | 0.519 | 0.329 | 0.491
6 | NCI-H661 | 0.784 | 0.798 | 0.718 | 0.794 | 0.747 | 0.814 | 0.912 | 0.901 | 0.88 | 0.756 | 0.863 | 0.799 | 0.784 | 0.684 | 0.352 | 0.375 | 0.406 | 0.348 | 0.402 | 0.379
7 | NCI-H838 | 0.774 | 0.669 | 0.681 | 0.639 | 0.591 | 0.236 | 0.235 | 0.239 | 0.229 | 0.217 | 0.255 | 0.326 | 0.222 | 0.247 | 0.267 | 0.225 | 0.187 | 0.18 | 0.214 | 0.203
8 | NCI-H1355 | 0.472 | 0.617 | 0.591 | 0.52 | 0.345 | 0.904 | 0.99 | 0.99 | 1.01 | 0.526 | 0.523 | 0.669 | 0.334 | 0.43 | 0.321 | 0.432 | 0.382 | 0.382 | 0.319 | 0.216
9 | NCI-H1395 | 0.573 | 0.683 |  | 0.661 | 0.479 | 0.744 | 0.864 |  | 0.96 | 0.533 | 0.448 | 0.383 | 0.346 | 0.398 | 0.376 | 0.593 | 0.612 |  | 0.605 | 0.483
10 | NCI-H1437 | 0.82 | 0.864 | 0.82 | 0.739 | 0.458 | 0.331 | 0.274 | 0.296 | 0.257 | 0.219 | 0.292 | 0.329 | 0.161 | 0.218 | 0.16 | 0.323 | 0.24 | 0.321 | 0.224 | 0.222
11 | NCI-H1650 | 0.561 | 0.549 | 0.409 | 0.529 | 0.458 | 0.323 | 0.335 | 0.334 | 0.377 | 0.305 | 0.304 | 0.385 |  | 0.312 | 0.187 | 0.314 | 0.258 | 0.158 | 0.253 | 0.28
12 | NCI-H1651 | 0.526 | 0.557 | 0.55 | 0.517 | 0.569 | 0.469 | 0.608 | 0.553 | 0.479 | 0.484 | 0.43 | 0.378 | 0.368 | 0.328 | 0.323 | 0.526 | 0.493 | 0.492 | 0.449 | 0.498
13 | NCI-H1666 | 1.08 | 0.953 |  | 0.992 | 0.798 | 0.851 | 0.901 |  | 0.756 | 0.6 | 0.855 | 0.87 | 0.69 | 0.688 | 0.477 | 0.616 | 0.632 |  | 0.68 | 0.72
14 | NCI-H1734 | 0.71 | 0.779 | 0.593 | 0.449 | 0.341 | 0.428 | 0.398 | 0.445 | 0.306 | 0.315 | 0.418 | 0.396 | 0.536 | 0.415 | 0.256 | 0.342 | 0.382 | 0.355 | 0.327 | 0.224
15 | NCI-H1755 | 0.795 | 0.686 | 0.782 | 0.764 | 0.598 | 0.449 | 0.326 | 0.409 | 0.424 | 0.396 | 0.444 | 0.392 | 0.413 | 0.398 | 0.298 | 0.429 | 0.404 | 0.45 | 0.43 | 0.417
16 | NCI-H1793 |  | 0.618 |  | 0.569 | 0.257 |  | 0.715 |  | 0.591 | 0.259 | 0.197 | 0.292 |  | 0.326 | 0.287 |  | 0.255 |  | 0.28 | 0.232
